Laboratory results: PubChem BioAssay (NCI)
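Cultured in 96-well plates, cells were exposed to test compound for 48 hours across five concentrations. GI50 is the concentration that inhibits growth by half. The concentration for full growth arrest is given as TGI.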

Assays:
Experiment in all cases: NCI anticancer screen, dose series, 48 h
[1] = tested on: MDA-MB-231 breast
[2] = tested on: MALME-3M melanoma
[3] = tested on: UACC-62 melanoma
[4] = tested on: HCT-116 colon
[5] = tested on: K-562 leukemia
[6] = tested on: NCI-H23 lung
[7] = tested on: HCC-2998 colon
[8] = tested on: HL-60(TB) leukemia
[9] = tested on: M14 melanoma
[10] = tested on: NCI-H522 lung

SMILES | GI50 [1] [µM] | TGI [1] [µM] | GI50 [2] [µM] | TGI [2] [µM] | GI50 [3] [µM] | TGI [3] [µM] | GI50 [4] [µM] | TGI [4] [µM] | GI50 [5] [µM] | TGI [5] [µM] | GI50 [6] [µM] | TGI [6] [µM] | GI50 [7] [µM] | TGI [7] [µM] | GI50 [8] [µM] | TGI [8] [µM] | GI50 [9] [µM] | TGI [9] [µM] | GI50 [10] [µM] | TGI [10] [µM]
O=C1CC(N2C(=O)/C(=C/C(Cl)=C\c3ccc([N+](=O)[O-])cc3)SC2=S)C(=O)N1c1ccc(O)cc1 (stereo not given) | 2.14 | 5.06 | 2.31 | 5.79 | 1.67 | 3.38 | 0.751 | 2.14 | 0.603 | 9.55 | 1.56 | 3.52 | 1.48 | 2.92 | 2.44 | 9.57 | 1.46 | 3.31 | 1.86 | 4.23
NC(N)=Nc1ccc(/C=C2\C=Cc3ccccc32)cc1 | 1.71 | 3.83 | 4.41 | 16.5 | 2.84 | 9.94 | 1.55 | 2.93 | 2.66 | > 22 | 2.95 | 10.4 | 1.69 | 3.15 | 2.67 | 5.87 | 2.05 | 5.44 | 2.39 | 5.79
Cc1ccccc1C(C(=O)NC1CCCCC1)N(C(=O)CNc1ccc(C#N)cc1)c1cccc(F)c1 (stereo not given) | 12.4 | 70.7 | 15.7 | > 91.3 | 18.7 | > 100 | 13.6 | > 100 | > 95.7 | > 100 | 25.1 | > 77.6 | > 100 | > 100 | > 70.5 | > 100 | 80.9 | > 100 | 14.3 | > 100
